Assay results taken from patent publication US20050059626A1, “Methods of preventing and treating viral infections using immunomodulatory polynucleotide sequences” (priority 2000, published 2005).

Tests used:
HSV-2 [1] = assay: Viral titer after pre-treating HSV-2 virus with oligonucleotide, Vero cells; type: cell-based, African Green monkey (Vero cells)
Method: (§1) HSV-1 or HSV-2 virus was pre-treated with varying concentrations of ISS or non-ISS oligonucleotides for 10 minutes prior to adding the mixture to plated Vero cells. Oligonucleotides were used at 1 μg/ml or 10 μg/ml. Viral titers were calculated as a percent of control titer generated by cells not treated with the oligonucleotides. The data are expressed as percent of control titer.

HSV-2 [2] = assay: Viral titer from Vero cells pre-treated with oligonucleotide, HSV-2; type: cell-based, African Green monkey (Vero cells); conditions: cells infected with HSV-2
Method: (§2) Vero cells, a cell line derived from African Green monkey kidney, were pre-treated with varying concentrations of ISS or non-ISS oligonucleotides for varying times prior to the addition of HSV-1 or HSV-2. Oligonucleotides were used at 1 μg/ml or 10 μg/ml and the cells were incubated with the oligonucleotides for 30 seconds, 10 minutes or 24 hours. Viral titers were calculated as a percent of control titer generated by cells not treated with the oligonucleotides. The data are expressed as percent of control titer.

HSV-1 [3] = assay: Viral titer after pre-treating HSV-1 virus with oligonucleotide, Vero cells; type: cell-based, African Green monkey (Vero cells)
Method: as §1

HSV-1 [4] = assay: Viral titer from Vero cells pre-treated with oligonucleotide, HSV-1; type: cell-based, African Green monkey (Vero cells); conditions: cells infected with HSV-1
Method: as §2

HSV-2 strain MS = assay: Recurrent genital HSV-2 disease in guinea pigs; type: in vivo, Swiss Hartley guinea pigs; conditions: 3 times/day for 7 days starting 6 hours post inoculation (21 treatments)
HBV = assay: Chronic HBV model: serum HBV DNA and HBsAg in STC transgenic mice; type: in vivo, STC strain transgenic mice; conditions: STC mice; ISS 100 μg SC; murine IL-12 100 ng IP days 12, 13, 14
Method: ISS activity was tested in an animal model of chronic hepatitis. An ISS-containing phosphorothioate oligonucleotide (5′-[…]-3′) (SEQ ID NO:1), was delivered to STC strain transgenic mice, followed by measurement of HBV DNA and HBsAg production.
STC line mice were developed at Stanford University by Patricia Marion. The majority of these mice secrete HBV of the Ayw genotype (Galibert et al. (1979) Nature 281:646) to titers of 10^6-8 viral genome equivalents per ml of serum. STC mice were derived from the FVB strain, and were constructed by microinjection of HBV genomic DNA.
Approximately one month old mice were bled and tested for serum levels of HBsAg, which is predictive of viral DNA titer. A pool of 40 STC mice with approximately equal levels of HBsAg were selected and randomly assigned to four treatment groups of 10 animals each. The groups were treated as follows: • 1. 100 μg of ISS injected subcutaneously, once per week for 3 weeks (days 0, 7, 14) • 2. 100 μg of ISS injected subcutaneously, one injection at day 14 • 3. 100 ng of murine 1L-12 injected intraperitoneally on days 12, 13, and 14. • 4. PBS injected subcutaneously (days 0, 7, 14)
Blood samples were taken at day 0, 7, 14, 15 (22 hr after last IL-12 injection), 18, 28 and 35. Serum prepared from the blood samples was tested for HBV DNA by quantitative PCR (testing performed under contract by Hepadnavirus Testing, Inc.), and HBsAg using a commercially available EIA kit for HBsAg from Abbott Laboratories. Animals were sacrificed at day 35 and livers were collected for histologic analysis.

[5] = HSV-2 virus pre-treated 10 minutes with 1 μg/ml
[6] = HSV-2 virus pre-treated 10 minutes with 10 μg/ml
[7] = cells pre-treated 1 μg/ml, 30 sec
[8] = cells pre-treated 10 μg/ml, 30 sec
[9] = HSV-1 virus pre-treated 10 minutes with 1 μg/ml
[10] = HSV-1 virus pre-treated 10 minutes with 10 μg/ml
[11] = cells pre-treated 1 μg/ml, 10 min
[12] = cells pre-treated 1 μg/ml, 24 hr
[13] = cells pre-treated 10 μg/ml, 10 min
[14] = cells pre-treated 10 μg/ml, 24 hr

| Molecule | Viral titer, percent of control titer (HSV-2 [1]; [5]) | Viral titer, percent of control titer (HSV-2 [1]; [6]) | Viral titer, percent of control titer (HSV-2 [2]; [7]) | Viral titer, percent of control titer (HSV-2 [2]; [8]) | Viral titer, percent of control titer (HSV-1 [3]; [9]) | Viral titer, percent of control titer (HSV-1 [3]; [10]) | Viral titer, percent of control titer (HSV-1 [4]; [7]) | Viral titer, percent of control titer (HSV-1 [4]; [11]) | Viral titer, percent of control titer (HSV-1 [4]; [12]) | Viral titer, percent of control titer (HSV-1 [4]; [8]) | Viral titer, percent of control titer (HSV-1 [4]; [13]) | Viral titer, percent of control titer (HSV-1 [4]; [14]) | Viral titer, percent of control titer (HSV-2 [2]; [13]) | Viral titer, percent of control titer (HSV-2 [2]; [14]) | Viral titer, percent of control titer (HSV-2 [2]; [11]) | Viral titer, percent of control titer (HSV-2 [2]; [12]) | Cumulative recurrent mean lesion days (HSV-2 strain MS) | Effect on serum HBV DNA viral titer (HBV) |
| --- | --- | --- | --- | --- | --- | --- | --- | --- | --- | --- | --- | --- | --- | --- | --- | --- | --- | --- |
| 5′-TCGTCGAACGTTCGTTAACGTTCG-3′ (listed as DNA, chemistry not given here) [SEQ ID NO: 11, ISS oligonucleotide] | 101% of control titer | 97% of control titer | 119% of control titer | 136% of control titer | 100% of control titer | 100% of control titer | 129% of control titer | 95% of control titer | 87% of control titer | 122% of control titer | 96% of control titer | 78% of control titer |  |  |  |  |  |  |
| 5′-TGACTGTGAACCTTAGAGATGA-3′ (chemistry not given here) [SEQ ID NO: 12, non-ISS control oligonucleotide, reference compound] | 100% of control titer | 97% of control titer | 111% of control titer | 129% of control titer | 98% of control titer | 101% of control titer | 132% of control titer | 98% of control titer | 97% of control titer | 141% of control titer | 100% of control titer | 94% of control titer | 100% of control titer | 98% of control titer |  |  |  |  |
| 5′-TGACTGTGAAGGTTAGAGATGA-3′ (chemistry not given here) [SEQ ID NO: 9, reference compound] | 98% of control titer | 106% of control titer | 98% of control titer | 103% of control titer | 102% of control titer | 103% of control titer | 100% of control titer | 99% of control titer | 101% of control titer | 96% of control titer | 100% of control titer | 97% of control titer | 97% of control titer | 99% of control titer | 96% of control titer | 103% of control titer |  |  |
| Nc1nc2c(ncn2COCCO)c(=O)[nH]1 [Acyclovir, reference compound] |  |  |  |  |  |  |  |  |  |  |  |  |  |  |  |  | significant reduction in cumulative recurrent mean lesion days |  |
| murine IL-12: murine IL-12, 100 ng injected intraperitoneally as comparator in STC mice (protein, UniProt P43431 23-215; P43432 23-335, looked up) Interleukin-12 subunit alpha: RVIPVSGPARCLSQSRNLLKTTDDMVKTAREKLKHYSCTAEDIDHEDITRDQTSTLKTCLPLELHKNESCLATRETSSTTRGSCLPPQKTSLMMTLCLGSIYEDLKMYQTEFQAINAALQNHNHQQIILDKGMLVAIDELMQSLNHNGETLRQKPPVGEADPYRVKMKLCILLHAFSTRVVTINRVMGYLSSA Interleukin-12 subunit beta: MWELEKDVYVVEVDWTPDAPGETVNLTCDTPEEDDITWTSDQRHGVIGSGKTLTITVKEFLDAGQYTCHKGGETLSHSHLLLHKKENGIWSTEILKNFKNKTFLKCEAPNYSGRFTCSWLVQRNMDLKFNIKSSSSSPDSRAVTCGMASLSAEKVTLDQRDYEKYSVSCQEDVTCPTAEETLPIELALEARQQNKYENYSTSFFIRDIIKPDPPKNLQMKPLKNSQVEVSWEYPDSWSTPHSYFSLKFFVRIQRKKEKMKETEEGCNQKGAFLVEKTSTEVQCKGGNVCVQAQDRYYNSSCSKWACVPCRVRS |  |  |  |  |  |  |  |  |  |  |  |  |  |  |  |  |  | effective in reducing viral titer |
